Data from patent US20240383845A1, “NAPHTHALENEDITHIOL AND DERIVATIVE THEREOF, AND PRODUCTION PROCESS AND USE FOR THE SAME” (SUGAI CHEMICAL INDUSTRY CO., LTD., priority 2021, published 2024).

Experiments:
[1] = Refractive index (abbe refractometer); format: physicochemical; conditions: 25° C., 589 nm, value at 100% by mass by extrapolation
Protocol: The refractive index of each sample was measured using an abbe refractometer (“NAR-lT” manufactured by ATAGO CO., LTD.) at a temperature of 25° C. and a wavelength of 589 nm. Depending on the species of each sample, the refractive index was measured as follows.
For the after-mentioned 16NDSH, 15NDSH, 26NDSH and 27NDSH; 15DGNDSH; 15DHENDSH; 16DMNDSH and 15DMNDSH; and 16DCNDSH and 15DCNDSH, a sample was dissolved in 1,3-dimethyl-2-imidazolidinone (DMI) to prepare multiple solutions with different concentrations, and the refractive index of each solution was measured at a temperature of 25° C. and a wavelength of 589 nm. From the results of the refractive index at each concentration, the refractive index value at 100% by mass of the concentration was determined by extrapolation.
For the after-mentioned 16NDSHMA, 15NDSHMA, 26NDSHMA and 27NDSHMA; 16NDSHA and 15NDSHA; 15DANDSH; and 15DVNDSH, polymerization may occur during the mixing, and thus a sample was dissolved in a methoquinone/DMI solution (a solution containing 4000 ppm of methoquinone relative to the mass of DMI) to prepare multiple solutions with different concentrations. The refractive index of each solution was measured at a temperature of 25° C. and a wavelength of 589 nm. From the results of the refractive index at each concentration, the refractive index value at 100% by mass of the concentration was determined by extrapolation.
For the after-mentioned 16DANDSH; 16DVNDSH; 16DGNDSH; and 16DHENDSH, a sample was liquid for a while after preparation, and thus the refractive index was measured in the state of an undiluted solution. Further, thiol-ene-based resins (thiol-ene-based resins obtained from 16NDSH or 15NDSH and divinylbenzene) were measured in the same manner. […]

[2] = Dissolubility or compatibility (maximum dissolved concentration, HPLC); format: physicochemical; conditions: for Dissolubility, Ethyl acetate / Dissolubility, MMA / Dissolubility, PGMEA / Dissolubility, Styrene / Dissolubility, Toluene / Dissolubility, DMF / Dissolubility, Methanol / Dissolubility, THF: 25° C.; for Dissolubility, MMA: methyl methacrylate; for Dissolubility, PGMEA: propylene glycol monomethyl ether acetate; for Dissolubility, DMF: N,N-dimethylformamide; for Dissolubility, THF: tetrahydrofuran
Protocol: In more detail, the sample was added to a predetermined amount of a solvent or a polymerizable component until the sample was no longer dissolved, and the sample content of the liquid layer (the solvent layer) of the resulting mixture was analyzed using an HPLC (“SPD-20A” manufactured by SHIMADZU CORPORATION), and thus the concentration (the maximum dissolved concentration) of the sample in the liquid layer (the solvent layer) was determined as a solubility.

[3] = DMI solutions of different concentrations

| SMILES | Refractive index [1, 3] | melting point [°C] | Dissolubility, Ethyl acetate [2] | Dissolubility, MMA [2] [% by mass] | Dissolubility, PGMEA [2] [% by mass] | Dissolubility, Styrene [2] [% by mass] | Dissolubility, Toluene [2] | saturation solubility ([2]; in PMMA resin composition) | Refractive index ([1]; methoquinone/DMI solutions) | Dissolubility, DMF [2] [% by mass] | Dissolubility, Methanol [2] [% by mass] | Dissolubility, THF [2] [% by mass] |
| --- | --- | --- | --- | --- | --- | --- | --- | --- | --- | --- | --- | --- |
| c1cc(SCC2CO2)c2cccc(SCC3CO3)c2c1 (stereo not shown) [Example 15DGNDSH, 1,5-bis(glycidylthio)naphthalene] | 1.621 | 50 to 53 | 51.9 % by mass | 60.9 | 62.3 | 43.6 | 56.8 % by mass |  |  |  |  |  |
| CSc1cccc2c(SC)cccc12 [Example 15DMNDSH, 1,5-bis(methylthio)naphthalene] | 1.690 | 149 to 151 | 1.25 % by mass | 1.44 | 1.25 | 3.13 | 2.36 % by mass | about 10 % by mass |  |  |  |  |
| CSc1ccc2c(SC)cccc2c1 [Example 16DMNDSH, 1,6-bis(methylthio)naphthalene] | 1.690 | 52 to 53 | Freely blended (>90) % by mass | 62.3 | 42.3 | 68.7 | Freely blended (>90) % by mass |  |  |  |  |  |
| C=CC(=O)Sc1ccc2c(SC(=O)C=C)cccc2c1 [Example 16NDSHA, 1,6-bis(acryloylthio)naphthalene] |  | 64 to 66 | 56.3 % by mass | 55.7 | 44.3 | 59.4 | 58.4 % by mass |  | 1.667 |  |  |  |
| Sc1ccc2ccc(S)cc2c1 [Example 27NDSH, 2,7-naphthalenedithiol] | 1.721 | 186 to 188 | 0.90 % by mass |  | 1.05 |  | 0.76 % by mass |  |  | 7.75 | 0.16 | 5.24 |
| C=CC(=O)Sc1cccc2c(SC(=O)C=C)cccc12 [Example 15NDSHA, 1,5-bis(acryloylthio)naphthalene] |  | 156 to 158 | 1.57 % by mass | 1.93 | 1.50 | 4.24 | 2.61 % by mass |  | 1.646 |  |  |  |
| Sc1ccc2cc(S)ccc2c1 [Example 26NDSH, 2,6-naphthalenedithiol] | 1.718 | 196 to 197 | 0.65 % by mass |  | 0.73 |  | 0.64 % by mass |  |  | 3.54 | 0.11 | 4.03 |
